Measurements published in PMC545074, “The two neutrophil members of the formylpeptide receptor family activate the NADPH-oxidase through signals that differ in sensitivity to a gelsolin derived phosphoinositide-binding peptide” (BMC Cell Biology, 2004).
Where two headings read alike, the source gives them in different places. Where a SMILES comes first, the peptide text is derived from it. Where no end group is shown, it is not given here. The star is where a group is joined. RhodamineB = CCN(CC)c1ccc2c(-c3ccccc3C(=O)*)c3ccc(=[N+](CC)CC)cc-3oc2c1

Key:
FPR [1] = assay: Neutrophil NADPH-oxidase activity (superoxide anion release, isoluminol-enhanced chemiluminescence) induced through FPR; type: cell-based, human; details: for Effect on fMLF induced NADPH-oxidase activity (superoxide production): FPR stimulated by fMLF, concentration of test substance not given, data not shown
Description: (§1) Neutrophil granulocytes were isolated from buffy coats obtained from healthy adults. After dextran sedimentation at 1 × g, hypotonic lysis of the remaining erythrocytes, and centrifugation in a Ficoll-Paque gradient, the neutrophils were washed twice and resuspended (1 × 10^7 /ml) in Krebs-Ringer phosphate buffer containing glucose (10 mM), Ca^2+ (1 mM), and Mg^2+ (1.5 mM) (KRG; pH 7.3). The cells were stored on melting ice and used within 120 min of preparation.
(§2) Neutrophil production and release of superoxide anions was measured by means of an isoluminol-enhanced chemiluminescence (CL) assay. The CL activity was measured in a six-channel Biolumat LB 9505 apparatus (Berthold Co., Wildbad, Germany), using disposable 4-ml polypropylene tubes with a 900-μl reaction mixture containing 10^5–10^6 neutrophils, horseradish peroxidase (4 U) and isoluminol (20 μM) with and without cytochalasin B or PBP10. The measuring tubes were equilibrated for 5 to 10 minutes at 37°C and the cells were activated by addition of a receptor specific peptide agonist, fMLF for FPR and WKYMVM for FPRL1. The light emission was recorded continuously. Details about the CL technique are given in [45].

FPRL1 [2] = target: T1, FPRL1 (Homo sapiens, UniProt P25090); assay: Neutrophil NADPH-oxidase activity (superoxide anion release, isoluminol-enhanced chemiluminescence) induced through FPRL1; type: cell-based; details: for Effect on WKYMVM induced NADPH-oxidase activity (superoxide production): FPRL1 stimulated by WKYMVM, concentration of test substance not given, antagonists and rhodamine: data not shown
T1 construct: Neutrophil granulocytes were isolated from buffy coats obtained from healthy adults; endogenous in cells; host or cells: human neutrophil granulocytes from buffy coats of healthy adults
T1 sequence (P25090 1-351): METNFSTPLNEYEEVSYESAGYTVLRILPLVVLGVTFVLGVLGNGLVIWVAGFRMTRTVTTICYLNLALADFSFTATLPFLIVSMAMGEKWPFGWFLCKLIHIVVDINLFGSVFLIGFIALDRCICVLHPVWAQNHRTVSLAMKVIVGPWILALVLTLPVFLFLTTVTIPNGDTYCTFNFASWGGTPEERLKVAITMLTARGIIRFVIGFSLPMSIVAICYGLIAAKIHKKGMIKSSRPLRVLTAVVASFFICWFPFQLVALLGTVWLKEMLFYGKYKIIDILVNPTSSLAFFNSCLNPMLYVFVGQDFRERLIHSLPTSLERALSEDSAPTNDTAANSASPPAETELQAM
Description: as §1, §2

[3] = system: plasma membrane of neutrophils and other cells; details: cited from earlier work
[4] = set-up: method as in earlier work; details: cited from earlier work
FPR [5] = assay: Mobilization of CR3 to the neutrophil cell surface (FACS), fMLF induced; type: cell-based, human; details: PBP10 1 μM at 37°C for 5 minutes, then fMLF 100 nM for 10 minutes, four independent experiments
Description: as §1
(§3) The exposure of CR3 (CD11b/CD18) on the neutrophil cell surface was assessed by immunostaining and FACS-analysis. Cells challenged with peptide agonists with or without PBP10 were fixed with ice-cold paraformaldehyde and washed with FACSwash (PBS, 0.02% NaN3), after which the cells were incubated at 4°C with phycoerythrin-conjugated anti-CR3 antibodies (CD11b; Becton Dickinson 10 μl/10^6 cells) before analysis using a FACScan (Becton Dickinson, Mountain View, CA).

FPRL1 [6] = target: T1, FPRL1; assay: Cytosolic calcium mobilization in neutrophils (Fura-2 fluorescence), FPRL1 agonist WKYMVM; type: cell-based
Description: as §1
(§4) Neutrophils at a density of 2 × 10^7/ml in Ca^2+-free KRG supplemented with bovine serum albumin (BSA, 0.1%) were incubated with the acetoxymethylated derivative fura-2/AM (2 μM) at room temperature for 30 minutes. The cells were washed twice and resuspended in KRG, adjusted to 2 × 10^7/ml and kept protected from light on ice until use. Cells with or without PBP10 were equilibrated for 5 minutes at 37°C, after which the peptide agonist was added. The fura-2 fluorescence was followed with a luminescence spectrometer (LS50B; Perkin Elmer Corp.) using excitation wavelengths of 340 nm and 380 nm, and an emission wavelength of 510 nm and the [Ca^2+]i was calculated as described earlier.

FPR [7] = assay: Cytosolic calcium mobilization in neutrophils (Fura-2 fluorescence), FPR agonist fMLF; type: cell-based, human
Description: as §1, §4

FPRL1 [8] = target: T1, FPRL1; assay: Mobilization of CR3 to the neutrophil cell surface (FACS), WKYMVM induced; type: cell-based; details: PBP10 1 μM at 37°C for 5 minutes, then WKYMVM 100 nM for 10 minutes, four independent experiments
Description: as §1, §3

PKC = assay: Neutrophil NADPH-oxidase activity induced by the receptor independent PKC activator PMA; type: cell-based, human; details: neutrophils incubated 120 minutes with PTX 500 ng/ml, then PMA 100 nM
FPR [9] = system: FPR; set-up: method as in PMID 15147563; details: cited from earlier work
FPRL1 [10] = target: T1, FPRL1; set-up: method as in PMID 15147563; details: cited from earlier work
[11] = human neutrophils, 100 nM, Fura-2

Molecule: cyclosporine H
- Effect on fMLF induced NADPH-oxidase activity (superoxide production) (FPR [1]; human neutrophils): totally inhibited
- Effect on WKYMVM induced NADPH-oxidase activity (superoxide production) (FPRL1 [2]; human neutrophils): without effect

Molecule: QRLFQVKGRR
- Membrane permeability (ability to cross the plasma membrane) [3]: lacks the ability to cross the plasma membrane
- Effect of the unconjugated peptide on the WKYMVM induced neutrophil oxidase activity (FPRL1 [2]; 1 μM final concentration, 37°C for 5 minutes, then WKYMVM 100 nM): no effect
- PIP2 binding [4]: same PIP2-binding characteristics as PBP10

Molecule: Rh-VKGRRG (RhodamineB-VKGRRG) [truncated rhodamine labeled peptide]
- IC50 (FPRL1 [2]; human neutrophils treated with the peptide prior to activation with WKYMVM, superoxide release by isoluminol chemiluminescence, 37°C, Fig 1D three independent experiments, read-out: IC50 value for the WKYMVM induced NADPH-oxidase response): 1000 nM

Molecule: CCN(CC)c1ccc2c(-c3ccccc3C(=O)N[C@@H](CCC(N)=O)C(=O)N[C@@H](CCCNC(=N)N)C(=O)N[C@@H](CC(C)C)C(=O)N[C@@H](Cc3ccccc3)C(=O)N[C@@H](CCC(N)=O)C(=O)N[C@H](C(=O)N[C@@H](CCCCN)C(=O)NCC(=O)N[C@@H](CCCNC(=N)N)C(=O)N[C@@H](CCCNC(=N)N)C(=O)O)C(C)C)c3ccc(=[N+](CC)CC)cc-3oc2c1 [PBP10, rhodamine-B-QRLFQVKGRR] (RhodamineB-QRLFQVKGRR-OH; C-terminus assumed)
- Effect on the FPR-mediated NADPH-oxidase response in the presence of cytochalasin B (FPR [1]; cytochalasin B 2.5 μg/ml, fMLF 100 nM, PBP10 5 μM (higher concentrations required)): only partly inhibited
- Effect on the fMLF induced NADPH-oxidase activity (FPR [1]; human neutrophils, PBP10 at concentrations up to 10 μM prior to activation with fMLF, isoluminol chemiluminescence): no effect
- Membrane permeability (ability to cross the plasma membrane) ([3]; neutrophils and other cells): membrane permeable
- Effect on FPR induced granule mobilization (CR3 exposure) (FPR [5]): without effect
- Effect on the calcium response induced by WKYMVM (FPRL1 [6]; PBP10 1 μM, 5 minutes at 37°C prior to WKYMVM 100 nM, Fura-2, representative experiment): did not alter
- IC50 (FPRL1 [2]): 50 nM
- Effect on NADPH-oxidase activity induced by WKYMVM in the presence of cytochalasin B (FPRL1 [2]; cytochalasin B 2.5 μg/ml, WKYMVM 100 nM): largely inhibited
- Effect on WKYMVM induced NADPH-oxidase activity (superoxide production) (FPRL1 [2]; human neutrophils): totally inhibited
- Effect on the calcium response induced by fMLF (FPR [7]; PBP10 1 μM, 5 minutes at 37°C prior to fMLF 100 nM, Fura-2, representative experiment): did not alter
- PIP2 binding [4]: PIP2 binding capacity
- Effect on WKYMVM induced secretory response (mobilization of CR3 to the cell surface) (FPRL1 [8]): blocked

Molecule: N-formyl-Met-Leu-Phe [fMLF, prototype FPR agonist]
- Agonist-induced oxidative burst (release of superoxide anions) through FPR (FPR [1]): robust oxidative burst
- Agonist-induced change in cytosolic calcium through FPR (FPR [7]; [11]): rapid and transient increase

Molecule: Trp-Lys-Tyr-Met-Val-Met-NH2 [WKYMVM, FPRL1 specific hexapeptide agonist]
- Agonist-induced change in cytosolic calcium through FPRL1 (FPRL1 [6]; [11]): rapid and transient increase
- Agonist-induced oxidative burst (release of superoxide anions) through FPRL1 (FPRL1 [2]; human neutrophils, 100 nM and 20 nM shown in Fig 1A): robust oxidative burst

Molecule: pertussis toxin
- Effect of pertussis toxin on the FPR mediated oxidase response (FPR [1]; neutrophils incubated 120 minutes with PTX 500 ng/ml, then fMLF 100 nM): inhibited
- Effect of pertussis toxin on the FPRL1 mediated oxidase response (FPRL1 [2]; neutrophils incubated 120 minutes with PTX 500 ng/ml, then WKYMVM 100 nM): inhibited
- Effect of pertussis toxin on oxidase activity induced by PMA (PKC): no reduction

Molecule: WRWWWW [FPRL1 specific antagonist]
- Effect on fMLF induced NADPH-oxidase activity (superoxide production) (FPR [1]; human neutrophils): not affected
- Effect on WKYMVM induced NADPH-oxidase activity (superoxide production) (FPRL1 [2]; human neutrophils): totally inhibited

Molecule: C=C1[C@@H](C)[C@H]2[C@H](Cc3ccccc3)NC(=O)[C@]23OC(=O)/C=C/[C@H](O)CCC[C@@H](C)C/C=C/[C@H]3[C@@H]1O [cytochalasin B]
- Effect of cytochalasin B on the neutrophil response to FPR agonists (FPR [9]): augmented and prolonged
- Effect of cytochalasin B on the neutrophil response to FPRL1 agonists (FPRL1 [10]): augmented and prolonged
- Effect of cytochalasin B on the transient rise in intracellular calcium induced by active FPRL1 (FPRL1 [6]; data not shown): not affected
- Effect of cytochalasin B on the transient rise in intracellular calcium induced by active FPR (FPR [7]; data not shown): not affected

Molecule: COC[C@H]1OC(=O)c2coc3c2[C@@]1(C)C1=C(C3=O)[C@@H]2CCC(=O)[C@@]2(C)C[C@H]1OC(C)=O [Wortmannin]
- Effect of the PI3K inhibitor on oxidase activity induced by fMLF (FPR [1]; neutrophils incubated with different concentrations at 37°C for 30 minutes, then fMLF 100 nM, representative experiment): largely inhibited
- Effect of the PI3K inhibitor on oxidase activity induced by WKYMVM (FPRL1 [2]; neutrophils incubated with different concentrations at 37°C for 30 minutes, then WKYMVM 100 nM, representative experiment): largely inhibited
